In PMC8931335 (Proceedings of the National Academy of Sciences of the …, 2022):

Molecular target: T1, MOR42-3 (Mus musculus, UniProt E9PX47)
T1 sequence (E9PX47 1-334): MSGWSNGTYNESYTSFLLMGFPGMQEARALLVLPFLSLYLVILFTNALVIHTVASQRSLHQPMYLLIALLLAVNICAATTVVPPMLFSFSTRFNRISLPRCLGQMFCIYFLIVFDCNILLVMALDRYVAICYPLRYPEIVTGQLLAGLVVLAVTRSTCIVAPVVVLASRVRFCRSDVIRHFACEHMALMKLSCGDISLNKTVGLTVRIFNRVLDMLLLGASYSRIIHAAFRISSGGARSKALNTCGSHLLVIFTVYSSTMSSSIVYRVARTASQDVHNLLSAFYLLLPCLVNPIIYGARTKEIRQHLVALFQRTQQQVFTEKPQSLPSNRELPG
Assay: CRE luciferase reporter assay in Hana3A cells
Type: cell-based

`O=C(O)CCCCCCCC(=O)O` [NA] was tested, and the EC50 was 29.4 ± 12.8 µM.
